Reference: US9127037B2, “Crystalline rostafuroxin” (ROSTAQUO S.P.A., priority 2005, dated 2015)

Key:
Solubility in water = type: physicochemical
Method: A mixture of 5.00 grams of rostafuroxin (amorphous or any other crystalline form) and 50 ml of absolute ethanol was stirred until clearness. This solution was than added dropwise into 250 ml of water at room temperature under vigorous stirring at room temperature. At the end of addiction, the mixture was filtered and washed with deionized water. The product was dried under vacuum at 40° C. for 16 hours. The product contained 10.6% of water, corresponding to about 2.5 moles of water per mole of rostafuroxin (rostafuroxin.2.5H2O). Yield: 55%.

Na—K pump = conditions: cultured renal cells, cited from earlier work
normotensive rats = conditions: cited from earlier work
[1] = test system: other receptors involved in blood pressure regulation or hormonal control; conditions: in vitro; cited from earlier work
[2] = molecular target: purified sodium, potassium ATPase enzyme (Na—K ATPase); conditions: in vitro; read-out: IC50, displacement of ouabain from its binding sites on purified Na—K ATPase; cited from earlier work
[3] = test system: rats made hypertensive by chronic infusion of ouabain; conditions: ouabain 50 microg/kg/day chronic infusion, per os 0.1-1 microg/kg/day for 4 weeks; cited from earlier work

SMILES: CC12CCC(O)CC1CCC1C2CCC2(C)C(O)(c3ccoc3)CCC12O (stereo not drawn) [Form F, 17β-(3-furyl)-5β-androstane-3β,14β,17α-triol]
- solubility in water (Solubility in water): low solubility

SMILES: C[C@@H]1O[C@@H](O[C@H]2C[C@@H](O)[C@]3(CO)[C@H]4[C@H](O)C[C@]5(C)[C@@H](C6=CC(=O)OC6)CC[C@]5(O)[C@@H]4CC[C@]3(O)C2)[C@H](O)[C@H](O)[C@H]1O [ouabain, reference compound]
- concentration that stimulated the Na—K pump at Vmax (Na—K pump; incubation for 5 days): 10^−10 to 10^−8 M

SMILES: C[C@]12CC[C@H](O)C[C@H]1CC[C@@H]1[C@@H]2CC[C@]2(C)[C@@](O)(c3ccoc3)CC[C@]12O [rostafuroxin, 17β-(3-furyl)-5β-androstane-3β,14β,17α-triol]
- blood pressure (normotensive rats): did not affect
- renal Na—K ATPase activity (normotensive rats): did not affect
- interaction with other receptors involved in blood pressure regulation or hormonal control [1]: without interacting
- concentrations that abolished the ouabain-dependent increase in the Na—K pump rate (Na—K pump): 10^−14 to 10^−9 M
- stimulation of the Na—K pump at Vmax (same effect as ouabain) (Na—K pump): showed the same effect at micromolar concentration
- IC50 [2]: 1700 nM
- increase in blood pressure caused by ouabain [3]: abolished
- increase in renal Na—K ATPase activity caused by ouabain [3]: abolished
